Inhibition in vivo and IC50 data for 20 compounds are collected here from patent US5449814A, “Lignan analogues, methods of preparation thereof and anti-hyperlipemic agents” (Shionogi & Co., Ltd., priority 1991, dated 1995).

For one experiment, the system named is cholesterol in serum. As to the kind of experiment: Hypocholesterolemic effect in cholesterol-fed mice. Format: in vivo, Male ICR mice. The note with it: Mus musculus, po, 168 h, diet 1% cholesterol and 0.5% sodium cholate with 0.12% test compound, 7 days. As to the method: Hypocholesterolemic effect
Male ICR mice weighing 30 to 40 g were allowed to access to a diet containing 1% cholesterol and 0.5% sodium cholate supplemented with 0.12% of a test compound (no test compound in control group) ad libitum for 7 days. Then, the blood was taken and total cholesterol in serum was determined by the method of Allain (Clin. Chem., Vol. 20, 470 (1974)).
Total amount of VLDL cholesterol and LDL cholesterol was obtained by subtracting HLD cholesterol from total cholesterol. HLD cholesterol was quantified by the method of Ash and Hentschel et al. (Clin. Chem., Vol. 24, 2180 (1978)).
Hypocholesterolemic effect of a test compound was evaluated based on % reduction in cholesterol calculated using the equation shown below.

The next experiment has as its system LDL. As to the kind of experiment: Inhibitory effect on oxidative modification of LDL (copper-induced, TBA reactive substances). Format: biochemical, New Zealand albino rabbits. The note with it: rabbit LDL 0.2 mg protein/ml, 0.5 μM Cu^2+, 37° C., 24 hours; read-out: Inhibition of LDL oxidation IC50. The protocol:
Inhibitory effect on oxidative modification of LDL
According to the method by Kita et al. (Proc. Natl. Acad. Sci., U.S.A, Vol. 84, 5928 (1987)), the experiment was proceeded as follows.
LDL was isolated from the blood of New Zealand albino rabbits fed with a diet containing 0.5% cholesterol for 3 weeks, and dissolved in phosphate-buffered physiological saline (final LDL concentration: 0.2 mg protein/ml). To this solution, each test compound in ethanol was added and then copper sulfate (final Cu^2+ concentration: 0.5 μM) was added thereto. The mixture was incubated at 37° C. for 24 hours.
After incubation, the content of lipid peroxides in each solution was determined as thiobarbituric acid reactive substances (TBA reactive substances). Concentration for 50% inhibition (IC50) was obtained from a linear regression curve of concentration of a compound versus % inhibition of oxidative modification of LDL. To quantify TBA reactive substances, proteins were removed from the solution after incubation, and the supernatant was examined for the content of TBA reactive substances by TBA method.

Setting [1] is: serum, read-out: Total Chol. reduction (%).
[2] abbreviates: total minus HDL cholesterol, read-out: (VLDL + LDL) Chol. reduction (%).

The structures appear in SMILES notation. Where two headings read alike, the source gives them in different places.

The term IC50 denotes the concentration at which inhibition is half-maximal. In the case of `CCC(CC)CC(=O)c1c(C(=O)OC)c(-c2ccc(OC)c(OC)c2)c2c(OC)c(OC)c(OC)c(OC)c2c1O` [Example 69, 1-(3,4-dimethoxyphenyl)-3-(3-ethyl-1-oxopentyl)-4-hydroxy-2-methoxycarbonyl-5,6,7,8-tetramethoxynaphthalene], the figures for the inhibition in vivo at 0.12 % in diet in the experiment on cholesterol in serum (setting [1]) and in the experiment with cholesterol in serum (setting [2]) were 10% and 16%, respectively. Moreover, the IC50 in the experiment with LDL amounted to 2.79 µM.

As for `COC(=O)c1c(C(=O)c2ccc(C(F)(F)F)cc2)c(O)c2cc(OC)c(OC)c(OC)c2c1-c1ccc(OC)cc1OC` [Example 43, 1-(2,4-Dimethoxyphenyl)-4-hydroxy-2-methoxycarbonyl-3-[4-(trifluoromethyl)benzoyl]-6,7,8-trimethoxynaphthalene], the inhibition in vivo at 0.12 % in diet in the experiment on cholesterol in serum (setting [1]) turned out to be 15%; in the experiment with cholesterol in serum (setting [2]), 59%. In addition, the IC50 in the experiment on LDL was found to be 2.12 µM.

As to `COC(=O)c1c(C(=O)C(C)C)c(O)c2c(C)c(OC)c(OC)c(OC)c2c1-c1ccc(OC)c(OC)c1` [Example 76, 1-(3,4-dimethoxyphenyl)-3-(2-methyl-1-oxo-propyl)-4-hydroxy-2-methoxycarbonyl-5-methyl-6,7,8-trimethoxynaphthalene], the inhibition in vivo at 0.12 % in diet with cholesterol in serum (setting [1]) was 15%; with cholesterol in serum (setting [2]), 43%. The IC50 in the experiment with LDL was found to be 0.54 µM.

Regarding `COC(=O)c1c(C(=O)C(F)(F)C(F)(F)F)c(O)c2cc(OC)c(OC)c(OC)c2c1-c1ccc(OC)c(OC)c1` [Example 31, 1-(3,4-Dimethoxyphenyl)-4-hydroxy-2-methoxycarbonyl-3-(pentafluoro-1-oxopropyl)-6,7,8-trimethoxynaphthalene], the inhibition in vivo at 0.12 % in diet in the experiment with cholesterol in serum (setting [1]) came out at 15%; with cholesterol in serum (setting [2]) it was 41%. Also, the 50% inhibitory concentration (IC50) with LDL was determined as 0.85 µM.

On to `CCC(CC)C(=O)c1c(C)c(-c2ccc(OC)c(OC)c2)c2c(OC)c(OC)c(OC)cc2c1O` [Example 64, 1-(3,4-dimethoxyphenyl)-3-(2-ethyl-1-oxobutyl)-4-hydroxy-2-methyl-6,7,8-trimethoxynaphthalene], for which the inhibition in vivo at 0.12 % in diet was found to be 2% with cholesterol in serum (setting [1]) and 39% in the experiment with cholesterol in serum (setting [2]). For the same compound, the IC50 with LDL is 7.1 µM.

`COC(=O)c1c(C(=O)c2ccc(OC)c(OC)c2)c(O)c2cc(OC)c(OC)c(OC)c2c1-c1ccc(OC)c(OC)c1` [Example 24, 3-(3,4-Dimethoxybenzoyl)-1-(3,4-dimethoxyphenyl)-4-hydroxy-2-methoxycarbonyl-6,7,8-trimethoxynaphthalene]: the inhibition in vivo at 0.12 % in diet with cholesterol in serum (setting [1]) worked out at 11%; in the experiment with cholesterol in serum (setting [2]) it was 54%. Also, the concentration for half-maximal inhibition (IC50) in the experiment on LDL amounted to 0.98 µM.

In the case of `COC(=O)c1c(C(=O)Cc2ccccc2)c(O)c2cc(OC)c(OC)c(OC)c2c1-c1ccc(OC)c(OC)c1` [Example 8, 1-(3,4-Dimethoxyphenyl)-4-hydroxy-2-methoxycarbonyl-3-(2-phenyl-1-oxoethyl)-6,7,8-trimethoxynaphthalene], the inhibition in vivo at 0.12 % in diet was found to be 17% with cholesterol in serum (setting [1]) and 50% with cholesterol in serum (setting [2]). In addition, the IC50 in the experiment with LDL stood at 4.67 µM.

In the case of `COc1ccc(-c2c(C(F)(F)F)c(C(=O)c3ccc(C(F)(F)F)cc3)c(O)c3cc(OC)c(OC)c(OC)c23)cc1OC` [Example 63, 1-(3,4-dimethoxyphenyl)-4-hydroxy-2-(trifluoromethyl)-3-[4-(trifluoromethyl)benzoyl]-6,7,8-trimethoxynaphthalene], the inhibition in vivo at 0.12 % in diet worked out at 20% with cholesterol in serum (setting [1]) and 53% in the experiment with cholesterol in serum (setting [2]). For the same compound, the IC50 in the experiment on LDL was 2.32 µM.

On to `COC(=O)c1c(C(=O)c2ccc(C(F)(F)F)cc2)c(O)c2cc(OC(C)C)c(OC(C)C)cc2c1-c1ccc(OC)c(OC)c1` [Example 40, 6,7-Bis(2-propyloxy)-1-(3,4-dimethoxyphenyl)-4-hydroxy-2-methoxycarbonyl-3-[4-(trifluoromethyl)benzoyl]naphthalene], for which the inhibition in vivo at 0.12 % in diet with cholesterol in serum (setting [1]) amounted to 23%; in the experiment on cholesterol in serum (setting [2]), 56%. Moreover, the IC50 in the experiment on LDL worked out at 4.29 µM.

As to `COC(=O)c1c(C(=O)c2ccc3ccccc3c2)c(O)c2cc(OC)c(OC)c(OC)c2c1-c1ccc(OC)c(OC)c1` [Example 25, 1-(3,4-Dimethoxyphenyl)-4-hydroxy-2-methoxycarbonyl-3-(2-naphthoyl)-6,7,8-trimethoxynaphthalene], the inhibition in vivo at 0.12 % in diet came out at 16% in the experiment on cholesterol in serum (setting [1]) and 59% in the experiment on cholesterol in serum (setting [2]). In addition, the IC50 with LDL came to 2.07 µM.

For the compound `COC(=O)c1c(C(=O)C(C)C)c(O)c2cc(OC)c(OC)c(OC)c2c1-c1ccc(OC)c(OC)c1` [Example 3, 1-(3,4-Dimethoxyphenyl)-4-hydroxy-2-methoxycarbonyl-3-(2-methyl-1-oxopropyl)-6,7,8-trimethoxynaphthalene], the results for the inhibition in vivo at 0.12 % in diet in the experiment with cholesterol in serum (setting [1]) and with cholesterol in serum (setting [2]) were 21% and 57%, respectively. Besides, in the experiment on LDL, the IC50 was found to be 0.12 µM.

`COC(=O)c1c(C(=O)c2ccc(Cl)cc2)c(O)c2cc(OC)c(OC)c(OC)c2c1-c1ccc(OC)c(OC)c1` [Example 23, 3-(4-Chlorobenzoyl)-1-(3,4-dimethoxyphenyl)-4-hydroxy-2-methoxycarbonyl-6,7,8-trimethoxynaphthalene]: the figures for the inhibition in vivo at 0.12 % in diet in the experiment with cholesterol in serum (setting [1]) and in the experiment on cholesterol in serum (setting [2]) were 28% and 74%, respectively. Besides, in the experiment with LDL, the IC50 was determined as 1.42 µM.

For `CCC(CC)CC(=O)c1c(C(=O)OC)c(-c2ccc(OC)c(OC)c2)c2cc3c(cc2c1O)OCCO3` [Example 36, 1-(3,4-Dimethoxyphenyl)-6,7-ethylenedioxy-3-(3-ethyl-1-oxopentyl)-4-hydroxy-2-(methoxycarbonyl)naphthalene], the inhibition in vivo at 0.12 % in diet came to 21% with cholesterol in serum (setting [1]) and 49% in the experiment on cholesterol in serum (setting [2]). In the experiment with LDL, the half-maximal inhibitory concentration (IC50) was determined as 2.21 µM.

Consider `COC(=O)c1c(C(=O)c2ccc(OC)cc2)c(O)c2cc(OC)c(OC)c(OC)c2c1-c1ccc(OC)c(OC)c1` [Example 22, 1-(3,4-Dimethoxyphenyl)-4-hydroxy-3-(4-methoxybenzoyl)-2-methoxycarbonyl-6,7,8-trimethoxynaphthalene], for which the inhibition in vivo at 0.12 % in diet in the experiment on cholesterol in serum (setting [1]) stood at 12%; in the experiment with cholesterol in serum (setting [2]) it was 60%. Also, the IC50 with LDL is 0.82 µM.

As to `COC(=O)c1c(C(C)=O)c(O)c2cc(OC)c(OC)c(OC)c2c1-c1ccc(OC)c(OC)c1` [Example 2, 3-Acetyl-1-(3,4-dimethoxyphenyl)-4-hydroxy-2-methoxycarbonyl-6,7,8-trimethoxynaphthalene], the inhibition in vivo at 0.12 % in diet in the experiment with cholesterol in serum (setting [1]) stood at 22%; in the experiment with cholesterol in serum (setting [2]), 59%. In the experiment on LDL, the IC50 came out at 1.24 µM.

Turning to `CCC(CC)C(=O)c1c(C(=O)OC)c(-c2ccc(OC)c(OC)c2)c2c(OC)c(OC)c(OC)cc2c1O` [Example 4, 1-(3,4-Dimethoxyphenyl)-3-(2-ethyl-1-oxobutyl)-4-hydroxy-2-methoxycarbonyl-6,7,8-trimethoxynaphthalene], the figures for the inhibition in vivo at 0.12 % in diet in the experiment on cholesterol in serum (setting [1]) and in the experiment on cholesterol in serum (setting [2]) were 28% and 78%, respectively. Also, the IC50 with LDL is 0.65 µM.

Turning to `COC(=O)c1c(C(=O)c2ccc(C(F)(F)F)cc2)c(O)c2cc(OC)c(OC)c(OC)c2c1-c1ccc(OC)c(OC)c1` [Example 28, 1-(3,4-Dimethoxyphenyl)-4-hydroxy-2-methoxycarbonyl-3-[4-(trifluoromethyl)benzoyl]-6,7,8-trimethoxynaphthalene], the inhibition in vivo at 0.12 % in diet was determined as 22% with cholesterol in serum (setting [1]) and 61% in the experiment on cholesterol in serum (setting [2]). Besides, the IC50 in the experiment with LDL was found to be 1.52 µM.

For the compound `COC(=O)c1c(C(=O)c2ccc(C)cc2)c(O)c2cc(OC)c(OC)c(OC)c2c1-c1ccc(OC)c(OC)c1` [Example 19, 1-(3,4-Dimethoxyphenyl)-4-hydroxy-2-methoxycarbonyl-3-(4-methylbenzoyl)-6,7,8-trimethoxynaphthalene], the inhibition in vivo at 0.12 % in diet was found to be 11% in the experiment on cholesterol in serum (setting [1]) and 58% in the experiment on cholesterol in serum (setting [2]). Besides, the IC50 with LDL was determined as 1.05 µM.

Regarding `CCCc1ccc(C(=O)c2c(C(=O)OC)c(-c3ccc(OC)c(OC)c3)c3c(OC)c(OC)c(OC)cc3c2O)cc1` [Example 29, 1-(3,4-Dimethoxyphenyl)-4-hydroxy-2-methoxycarbonyl-3-[4-(1-propyl)benzoyl]-6,7,8-trimethoxynaphthalene], the inhibition in vivo at 0.12 % in diet is 20% in the experiment with cholesterol in serum (setting [1]) and 42% in the experiment with cholesterol in serum (setting [2]). The IC50 in the experiment on LDL was determined as 1.38 µM.

For the compound `CCC(=O)c1c(C(=O)OC)c(-c2ccc(OC)c(OC)c2)c2c(OC)c(OC)c(OC)c(C)c2c1O` [Example 72, 1-(3,4-dimethoxyphenyl)-3-(1-oxopropyl)-4-hydroxy-2-methoxycarbonyl-5-methyl-6,7,8-trimethoxynaphthalene], the inhibition in vivo at 0.12 % in diet amounted to 20% in the experiment on cholesterol in serum (setting [1]) and 64% in the experiment on cholesterol in serum (setting [2]). The IC50 in the experiment on LDL was found to be 0.59 µM.
